The source of these data is patent publication US10953027B2, “Active agents and methods of their use for the treatment of metabolic disorders and nonalcoholic fatty liver disease” (Flagship Pioneering Innovations V, Inc., priority 2018, dated 2021).

Common to all, as to format: in vitro ADME
Series [1] is described as follows: Assay 3. Fecal Incubation Stability. To be noted: 1 or 10 μM, human fecal slurry, anaerobic.
A short description of series [2]: Assay 2. Stability in Simulated Intestinal Fluid (SIF). To be noted: 1 μM, 37° C., SIF pH 6.7 with pancreatin. The method in brief:
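Degradation rate measured by LC/MS after acetonitrile quench of timed aliquots, starting at T0. Test compound 1 μM in simulated intestinal fluid (pH 6.7 phosphate buffer, FaSSIF powder, pancreatin), shaken at 37 °C.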

Series [3] in a line: Assay 1. Stability in Simulated Gastric Fluid (SGF). To be noted: 1 μM, 37° C., SGF pH 1.6 with pepsin. In outline: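 Simulated gastric fluid, prepared fresh as NaCl buffer at pH 1.6 with 0.1 mg/mL pepsin and FaSSIF powder, received test compound to 1 μM final and was held at 37 °C. LC/MS of acetonitrile-quenched samples, taken immediately and then periodically, gave degradation rates.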

Regarding `O=C(CCc1c[nH]c2ccccc12)Oc1ccc(/C=C/c2cc(OC(=O)CCc3c[nH]c4ccccc34)cc(OC(=O)CCc3c[nH]c4ccccc34)c2)cc1` [Compound 259, 4-[(1E)-2-[3,5-bis({[3-(1H-indol-3-yl)propanoyl]oxy})phenyl]ethenyl]phenyl 3-(1H-indol-3-yl)propanoate], in series [1], the “Assay 3 (% Remaining at 24 h)” value is listed as “B (B: 25-75% of the tested compound remaining)”. The “Assay 2 (SIF) (% @ Remaining 4 hours)” value in series [2] is “C (C: >75% of the tested compound remaining)”. The “Assay 1 (SGF) (% Remaining @ 1 hours)” value in series [3] is given as “C (C: >75% of the tested compound remaining)”.
On to `CCC(=O)O[C@@H]1[C@@H](OC(=O)CC)[C@@H](OC(=O)CCc2c[nH]c3ccccc23)OC[C@@H]1OC(=O)CC` [Compound 158, (2R,3R,4S,5S)-3,4,5-tris(propanoyloxy)oxan-2-yl 3-(1H-indol-3-yl)propanoate], for which, in series [1], the “Assay 3 (% Remaining at 24 h)” value is “A (A: <25% of the tested compound remaining)”. Further, in series [2], the “Assay 2 (SIF) (% @ Remaining 4 hours)” value was “A (A: <25% of the tested compound remaining)”. Besides, the “Assay 1 (SGF) (% Remaining @ 1 hours)” value in series [3] is “C (C: >75% of the tested compound remaining)”.
Regarding `CCC(=O)O[C@@H]1[C@@H](OC(=O)CC)[C@H](OC(=O)Cc2c[nH]c3ccccc23)OC[C@H]1OC(=O)CC` [Compound 109, (2S,3R,4S,5R)-2-{[2-(1H-indol-3-yl)acetyl]oxy}-4,5-bis(propanoyloxy)oxan-3-yl Propanoate], in series [1], the “Assay 3 (% Remaining at 24 h)” value is recorded as “A (A: <25% of the tested compound remaining)”. In series [2], the “Assay 2 (SIF) (% @ Remaining 4 hours)” value is on record as “A (A: <25% of the tested compound remaining)”. The “Assay 1 (SGF) (% Remaining @ 1 hours)” value in series [3] is on record as “C (C: >75% of the tested compound remaining)”.
`O=C(CCc1c[nH]c2ccccc12)O[C@@H]1OC[C@H](OC(=O)CCc2c[nH]c3ccccc23)[C@H](OC(=O)CCc2c[nH]c3ccccc23)[C@H]1OC(=O)CCc1c[nH]c2ccccc12` [Compound 102, (2S,3R,4S,5S)-3,4,5-tris({[3-(1H-indol-3-yl)propanoyl]oxy})oxan-2-yl 3-(1H-indol-3-yl)propanoate]: the “Assay 3 (% Remaining at 24 h)” value in series [1] is on record as “A (A: <25% of the tested compound remaining)”. Further, in series [2], the “Assay 2 (SIF) (% @ Remaining 4 hours)” value was “A (A: <25% of the tested compound remaining)”. Moreover, the “Assay 1 (SGF) (% Remaining @ 1 hours)” value in series [3] is on record as “B (B: 25-75% of the tested compound remaining)”.
For the compound `CCCC(=O)Oc1cc(OC(=O)CCC)c2c(c1)O[C@H](c1cc(OC(=O)CCC)c(OC(=O)CCC)c(OC(=O)CCC)c1)[C@H](OC(=O)c1cc(OC(=O)CCC)c(OC(=O)CCC)c(OC(=O)CCC)c1)C2` [Compound 3, [(2R,3R)-5,7-di(butanoyloxy)-2-[3,4,5-tri(butanoyloxy)phenyl]chroman-3-yl] 3,4,5-tri(butanoyloxy)benzoate], the “Assay 3 (% Remaining at 24 h)” value in series [1] is listed as “C (C: >75% of the tested compound remaining)”. In series [2], the “Assay 2 (SIF) (% @ Remaining 4 hours)” value is given as “C (C: >75% of the tested compound remaining)”. The “Assay 1 (SGF) (% Remaining @ 1 hours)” value in series [3] was “C (C: >75% of the tested compound remaining)”.
In the case of `CCC(=O)O[C@@H]1[C@@H](OC(=O)CC)[C@H](OC(=O)/C=C/c2c[nH]c3ccccc23)OC[C@H]1OC(=O)CC` [Compound 123, (2S,3R,4S,5R)-3,4,5-tris(propanoyloxy)oxan-2-yl (2E)-3-(1H-indol-3-yl)prop-2-enoate], in series [1], the “Assay 3 (% Remaining at 24 h)” value is on record as “A (A: <25% of the tested compound remaining)”. For the same compound, the “Assay 2 (SIF) (% @ Remaining 4 hours)” value in series [2] was “A (A: <25% of the tested compound remaining)”. The “Assay 1 (SGF) (% Remaining @ 1 hours)” value in series [3] is recorded as “C (C: >75% of the tested compound remaining)”.
For the compound `CCCC(=O)O[C@H]1[C@H](OC(=O)CCC)[C@H](OC(=O)CCc2c[nH]c3ccccc23)O[C@@H](C)[C@H]1OC(=O)CCC` [Compound 117, (2S,3S,4R,5R,6S)-4,5-bis(butanoyloxy)-2-{[3-(1H-indol-3-yl)propanoyl]oxy}-6-methyloxan-3-yl Butanoate], the “Assay 3 (% Remaining at 24 h)” value in series [1] is given as “A (A: <25% of the tested compound remaining)”. Also, the “Assay 2 (SIF) (% @ Remaining 4 hours)” value in series [2] was “A (A: <25% of the tested compound remaining)”. Besides, the “Assay 1 (SGF) (% Remaining @ 1 hours)” value in series [3] was “C (C: >75% of the tested compound remaining)”.
Take `CCC(=O)OC[C@H]1O[C@H](OC)[C@H](OC(=O)CC)[C@@H](OC(=O)CC)[C@@H]1OC(=O)CC` [Compound 88, [(2R,3R,4S,5R,6S)-6-methoxy-3,4,5-tris(propanoyloxy)oxan-2-yl]methyl Propanoate]: in series [1], the “Assay 3 (% Remaining at 24 h)” value is “A (A: <25% of the tested compound remaining)”. Besides, the “Assay 2 (SIF) (% @ Remaining 4 hours)” value in series [2] is reported as “A (A: <25% of the tested compound remaining)”. Moreover, the “Assay 1 (SGF) (% Remaining @ 1 hours)” value in series [3] is given as “C (C: >75% of the tested compound remaining)”.
For `O=C(CCc1c[nH]c2ccccc12)O[C@@H]1OC[C@@H](OC(=O)CCc2c[nH]c3ccccc23)[C@@H](OC(=O)CCc2c[nH]c3ccccc23)[C@H]1OC(=O)CCc1c[nH]c2ccccc12` [Compound 113, (2S,3R,4R,5R)-3,4,5-tris({[3-(1H-indol-3-yl)propanoyl]oxy})oxan-2-yl 3-(1H-indol-3-yl)propanoate], in series [1], the “Assay 3 (% Remaining at 24 h)” value is recorded as “A (A: <25% of the tested compound remaining)”. The “Assay 2 (SIF) (% @ Remaining 4 hours)” value in series [2] was “A (A: <25% of the tested compound remaining)”. Also, the “Assay 1 (SGF) (% Remaining @ 1 hours)” value in series [3] is listed as “C (C: >75% of the tested compound remaining)”.
For the compound `CCC(=O)O[C@H]1[C@@H](OC(=O)CCc2c[nH]c3ccccc23)OC[C@@H](OC(=O)CC)[C@H]1OC(=O)CC` [Compound 126, (2R,3R,4R,5R)-3,4,5-tris(propanoyloxy)oxan-2-yl 3-(1H-indol-3-yl)propanoate], the “Assay 3 (% Remaining at 24 h)” value in series [1] is reported as “A (A: <25% of the tested compound remaining)”. Besides, the “Assay 2 (SIF) (% @ Remaining 4 hours)” value in series [2] is reported as “A (A: <25% of the tested compound remaining)”. Besides, the “Assay 1 (SGF) (% Remaining @ 1 hours)” value in series [3] is recorded as “C (C: >75% of the tested compound remaining)”.
Turning to `CCC(=O)O[C@@H]1[C@@H](OC(=O)CC)[C@@H](OC(=O)Cc2c[nH]c3ccccc23)OC[C@@H]1OC(=O)CC` [Compound 140, (3S,4S,5R,6R)-6-{[2-(1H-indol-3-yl)acetyl]oxy}-4,5-bis(propanoyloxy)oxan-3-yl Propanoate], the “Assay 3 (% Remaining at 24 h)” value in series [1] is given as “A (A: <25% of the tested compound remaining)”. Further, the “Assay 2 (SIF) (% @ Remaining 4 hours)” value in series [2] is given as “A (A: <25% of the tested compound remaining)”. For the same compound, the “Assay 1 (SGF) (% Remaining @ 1 hours)” value in series [3] is recorded as “C (C: >75% of the tested compound remaining)”.
Consider `CCC(=O)OC[C@H]1O[C@H](OC(=O)Cc2c[nH]c3ccccc23)[C@H](OC(=O)CC)[C@@H](OC(=O)CC)[C@@H]1OC(=O)CC` [Compound 146, [(2R,3R,4S,5R,6R)-6-{[2-(1H-indol-3-yl)acetyl]oxy}-3,4,5-tris(propanoyloxy)oxan-2-yl]methyl Propanoate], for which, in series [1], the “Assay 3 (% Remaining at 24 h)” value is recorded as “A (A: <25% of the tested compound remaining)”. Also, the “Assay 2 (SIF) (% @ Remaining 4 hours)” value in series [2] is listed as “A (A: <25% of the tested compound remaining)”. In addition, the “Assay 1 (SGF) (% Remaining @ 1 hours)” value in series [3] is reported as “C (C: >75% of the tested compound remaining)”.
`CCC(=O)OC[C@H]1O[C@H](OC)[C@H](OC(=O)CC)[C@@H](OC(=O)CC)[C@H]1OC(=O)CC` [Compound 90, [(2R,3S,4S,5R,6S)-6-methoxy-3,4,5-tris(propanoyloxy)oxan-2-yl]methyl Propanoate]: the “Assay 3 (% Remaining at 24 h)” value in series [1] is “A (A: <25% of the tested compound remaining)”. Further, the “Assay 2 (SIF) (% @ Remaining 4 hours)” value in series [2] was “A (A: <25% of the tested compound remaining)”. The “Assay 1 (SGF) (% Remaining @ 1 hours)” value in series [3] is “C (C: >75% of the tested compound remaining)”.
On to `CCC(=O)O[C@@H]1[C@@H](OC(=O)CC)[C@H](C)O[C@@H](OC(=O)Cc2c[nH]c3ccccc23)[C@@H]1OC(=O)CC` [Compound 147, (2S,3R,4R,5S,6S)-2-{[2-(1H-indol-3-yl)acetyl]oxy}-6-methyl-4,5-bis(propanoyloxy)oxan-3-yl Propanoate], for which, in series [1], the “Assay 3 (% Remaining at 24 h)” value was “A (A: <25% of the tested compound remaining)”. The “Assay 2 (SIF) (% @ Remaining 4 hours)” value in series [2] is listed as “A (A: <25% of the tested compound remaining)”. Further, the “Assay 1 (SGF) (% Remaining @ 1 hours)” value in series [3] is on record as “C (C: >75% of the tested compound remaining)”.
As to `CCC(=O)O[C@@H]1OC[C@@H](OC(=O)CC)[C@@H](OC(=O)CC)[C@H]1OC(=O)CC` [Compound 136, (2S,3R,4R,5R)-3,4,5-tris(propanoyloxy)oxan-2-yl Propanoate], in series [1], the “Assay 3 (% Remaining at 24 h)” value is given as “A (A: <25% of the tested compound remaining)”. The “Assay 2 (SIF) (% @ Remaining 4 hours)” value in series [2] is “A (A: <25% of the tested compound remaining)”. Further, in series [3], the “Assay 1 (SGF) (% Remaining @ 1 hours)” value is on record as “C (C: >75% of the tested compound remaining)”.
